Where a SMILES comes first, the peptide text is derived from it. [ ]: non-standard residue; d: D form. The star is where a group is joined. dPhe(4-Cl) = N[C@H](Cc1ccc(Cl)cc1)C(=O)O; Ahp = NCCCCCCC(=O)O; Bn = c1ccc(C*)cc1
Key:
[1] = target: T1, MC1-R (B16-F1 mouse melanoma cells) (Mus musculus, UniProt Q01727); experiment: Competitive inhibition binding assay with 125I-NDP-MSH, MC1 receptor; settings: 10 μM peptide, 0 assigned when raw inhibition between −10% and 10%, read-out: % Inhibition at 10 μM concentration at MC1-Receptor
T1 construct: B-16 mouse melanoma cells (containing MC1-R); endogenous in cells; host or cells: B16-F1 mouse melanoma cells (membranes)
T1 sequence (Q01727 whole entry): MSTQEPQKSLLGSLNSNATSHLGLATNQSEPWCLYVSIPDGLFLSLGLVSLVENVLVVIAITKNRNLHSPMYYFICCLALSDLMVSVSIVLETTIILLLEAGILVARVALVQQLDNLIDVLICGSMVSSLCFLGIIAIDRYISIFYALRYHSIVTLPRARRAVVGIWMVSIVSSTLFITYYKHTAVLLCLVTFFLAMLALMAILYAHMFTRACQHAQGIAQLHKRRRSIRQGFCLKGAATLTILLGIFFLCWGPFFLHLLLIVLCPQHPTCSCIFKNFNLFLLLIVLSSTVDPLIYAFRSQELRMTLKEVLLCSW
Procedure: (§1) Competitive inhibition binding assay was conducted using membranes prepared from hMC3-R, hMC4-R, hMC5-R, and B-16 mouse melanoma cells (containing MC1-R) using 0.4 nM ^125I-NDP-MSH (0.2 nM for MCL-R) (New England Nuclear, Boston, Mass., USA) in 50 mM HEPES buffer containing 1 mM MgCl2, 2 mM CaCl2, and 5 mM KCl, at pH 7.2. The assay tube also contained a chosen concentration of the peptides of this invention, for determining inhibition of the binding of ^125I-NDP-MSH to its receptor. Non-specific binding was measured by complete inhibition of binding of ^125I-NDP-MSH in the assay in the presence of 1 μM α-MSH. Incubation was for 90 minutes at 37° C., after which the assay mixture was filtered and the membranes washed three times with ice cold buffer. The filter was dried and counted in a gamma counter for remaining radioactivity bound to the membranes. 100% specific binding was defined as the difference in radioactivity (cpm) bound to cell membranes in the absence and presence of 1 μM α-MSH. The cpm obtained in the presence of peptides of this invention were normalized with respect to 100% specific binding to determine the percent inhibition of ^125I-NDP-MSH binding. Each assay was conducted in triplicate.
(§2) The binding of the peptides of Examples 1 to 13, inclusive, to melanocortin receptors was evaluated, with results shown on Table 1. Relative binding was determined by competitive inhibition using an α-MSH analog, iodinated NDP-MSH. B16-Fl mouse melanoma cells were used as the source of MC1 receptors and HEK 293 cells, transfected with human melanocortin receptor sequences, were used as the source of MC3, MC4 and MC5 receptors. A standard competitive binding assay protocol as described above was followed, using ^125I-NDP-MSH as the radioligand. A “0” percent inhibition was assigned when the raw percent inhibition, as an average of at least triplicate measures, was between −10% and 10%; in the majority of instances, the raw percent inhibition was between −10% and 0% inhibition.

hMC3-R = target: T2, hMC3-R (Homo sapiens, UniProt P41968); experiment: Competitive inhibition binding assay with 125I-NDP-MSH, MC3 receptor; settings: 10 μM peptide, 0 assigned when raw inhibition between −10% and 10%, read-out: % Inhibition at 10 μM concentration at MC3-Receptor
T2 construct: expressed in transfected cells; host or cells: HEK 293 cells (membranes)
T2 sequence (P41968 whole entry): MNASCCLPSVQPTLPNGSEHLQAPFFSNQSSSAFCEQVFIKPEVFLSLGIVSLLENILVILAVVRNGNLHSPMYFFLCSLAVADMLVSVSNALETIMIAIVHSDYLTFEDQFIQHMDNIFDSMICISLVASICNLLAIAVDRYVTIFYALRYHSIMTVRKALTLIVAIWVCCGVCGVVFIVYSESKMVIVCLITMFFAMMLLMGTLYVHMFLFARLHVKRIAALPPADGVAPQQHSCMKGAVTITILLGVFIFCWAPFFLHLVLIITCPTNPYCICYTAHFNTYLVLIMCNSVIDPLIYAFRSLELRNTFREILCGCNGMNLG
Procedure: as §1, §2

hMC4-R = target: T3, hMC4-R (Homo sapiens, UniProt P32245); experiment: Competitive inhibition binding assay with 125I-NDP-MSH, MC4 receptor; settings: 10 μM peptide, 0 assigned when raw inhibition between −10% and 10%, read-out: % Inhibition at 10 μM concentration at MC4-Receptor
T3 construct: expressed in transfected cells
T3 sequence (P32245 whole entry): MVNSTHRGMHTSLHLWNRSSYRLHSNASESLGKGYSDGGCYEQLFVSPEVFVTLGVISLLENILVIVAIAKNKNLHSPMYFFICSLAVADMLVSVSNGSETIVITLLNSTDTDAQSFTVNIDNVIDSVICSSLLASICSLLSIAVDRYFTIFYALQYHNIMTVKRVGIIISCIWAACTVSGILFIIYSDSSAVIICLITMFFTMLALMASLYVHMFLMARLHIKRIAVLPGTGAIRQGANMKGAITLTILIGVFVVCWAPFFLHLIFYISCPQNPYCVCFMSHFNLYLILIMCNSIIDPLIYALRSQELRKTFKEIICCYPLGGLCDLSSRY
Procedure: as §1, §2

hMC5-R = target: T4, hMC5-R (Homo sapiens, UniProt P33032); experiment: Competitive inhibition binding assay with 125I-NDP-MSH, MC5 receptor; settings: 10 μM peptide, 0 assigned when raw inhibition between −10% and 10%, read-out: % Inhibition at 10 μM concentration at MC5-Receptor
T4 construct: expressed in transfected cells; host or cells: HEK 293 cells (membranes)
T4 sequence (P33032 whole entry): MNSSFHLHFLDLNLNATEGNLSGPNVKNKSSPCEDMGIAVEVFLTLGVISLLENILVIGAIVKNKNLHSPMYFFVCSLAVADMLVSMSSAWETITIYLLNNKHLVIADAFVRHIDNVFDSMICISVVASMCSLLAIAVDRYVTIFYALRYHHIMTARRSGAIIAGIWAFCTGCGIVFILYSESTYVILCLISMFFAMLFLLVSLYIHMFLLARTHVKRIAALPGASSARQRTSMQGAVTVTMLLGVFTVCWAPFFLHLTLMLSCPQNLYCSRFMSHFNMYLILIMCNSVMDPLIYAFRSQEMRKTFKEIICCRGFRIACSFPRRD
Procedure: as §1, §2

male Sprague-Dawley rats = experiment: Induction of penile erections in male rats; type: in vivo, rat
Procedure: The ability of the peptides of Examples 1 to 13 to induce penile erection in male rats was evaluated. Male Sprague-Dawley rats weighing 200-250 g were kept on a 12 hour on/off light cycle with food and water ad libitum. All behavioral studies were performed between 10 a.m. and 5 p.m. Groups of 4-8 rats were treated with peptides at a variety of doses via intravenous administration. Immediately after administration, rats were placed into individual polystyrene cages (27 cm long, 16 cm wide, and 25 cm high) for behavioral observation.
The efficacious dose of NH2—(CH2)6CO-Ser(Bzl)-D-Phe(4-Cl)-Arg, made as in Example 1 above, to induce penile erection in Sprague Dawley rats by intravenous dosing and oral administration was determined. […] NH2—(CH2)6CO-Ser(Bzl)-D-Phe(4-Cl)-Arg was efficacious at doses as low as 0.1 to 1 μg/kg of body weight when administered by oral means, and at doses lower than 0.001 μg/kg of body weight when administered by intravenous means.
The efficacious dose of NH2—(CH2)6—CO-Ser(Bzl)-D-Phe(4-Cl)-Arg(NO2), made as in Example 5 above, to induce penile erection in Sprague Dawley rats by intravenous dosing was determined. […] It was determined that NH2—(CH2)6—CO-Ser(Bzl)-D-Phe(4-Cl)-Arg(NO2) was efficacious at doses as low as 0.001 to 10 μg/kg of body weight when administered by intravenous means, with efficacy determined by induction of penile erection in 100% of animals. The optimal dose response was at 1 μg/kg of body weight. FIG. 1 depicts the dose response profile, with the error bars depicting standard deviation where n (the number of animals) is between 8 and 19, depending on the dose point.
The efficacious dose of NH2—(CH2)6—CO-Ser(Bzl)-D-Phe(4-Cl)-Arg(NO2), made as in Example 5 above, to induce penile erection in Sprague Dawley rats by intranasal administration using a micropipetor to deliver 25 μL of solution into one nostril was determined. […] It was determined that NH2—(CH2)6—CO-Ser(Bzl)-D-Phe(4-Cl)-Arg(NO2) was efficacious at doses between 0.01 μg/kg and 100 μg/kg of body weight when administered by intranasal means. The peak dose response was at an intranasal dose of 0.1 μg/kg of body weight.

male rats = experiment: Induced penile erections after pre-administration of MC4-R antagonist SHU9119; type: in vivo, rat; settings: SHU9119 approximately 5 minutes before peptide
Source text: It is known that MC4-R antagonists inhibit the erectile activity of MC4-R agonists in a dose dependent manner. Such antagonists include SHU9119, a nonselective melanocortin antagonist of the formula Ac-Nle-cyc/o(-Asp-His-D-Nal(2′)-Arg-Trp-Lys)-NH2 (Hruby V. J., Lu D., Sharma S. D., et al. Cyclic lactam alpha-melanotropin analogues of Ac-Nle^4-cyclo[Asp^5, D-Phe^7, Lys^10]-NH2 with bulky aromatic amino acids at position 7 show high antagonist potency and selectivity at specific melanocortin receptors. J Med Chem 38:3454-3461 (1995)). Antagonists such as SHU9119 are known to inhibit MT-II and other known melanocortin receptor-specific agonists that induce erectile activity. SHU9119 was administered to male rats approximately 5 minutes before administration of either NH2—(CH2)6CO-Ser(Bzl)-D-Phe(4-Cl)-Arg or NH2—(CH2)6CO-Ser(Bzl)-D-Phe(4-Cl)-Arg-Trp-NH2, with Ac-Nle-cyc/o(Asp-His-D-Phe-Arg-Trp-Lys)-OH, a known MC4-R agonist, as a positive control.

[2] = test system: panel of known central and peripheral receptors and neurotransmitters, ion channels and enzymes systems; experiment: Receptor specificity screening panel; type: binding; settings: 10 μM concentration
Procedure: The peptide NH2—(CH2)6CO-Ser(Bzl)-D-Phe(4-Cl)-Arg was tested at 10 μM concentration for binding to a panel of known central and peripheral receptors and neurotransmitters, including steroid receptors, neurotransmitter receptors, brain/gut peptide receptors, growth factor/hormone receptors and other receptors, and for interaction with a panel of known ion channels and enzymes systems.

N=C(N)NCCC[C@H](NC(=O)[C@@H](Cc1ccc(Cl)cc1)NC(=O)[C@H](COCc1ccccc1)NC(=O)CCCCCCN)C(=O)O [NH2—(CH2)6—CO-Ser(Bzl)-D-Phe(4-Cl)-Arg, NH2—(CH2)6CO-Ser(Bzl)-D-Phe(4-Cl)-Arg] (H-[Ahp]S(Bn)[dPhe(4-Cl)]R-OH)
inhibition at 10 µM [1]: 0% | inhibition at 10 µM (hMC3-R): 0% | inhibition at 10 µM (hMC4-R): 0% | inhibition at 10 µM (hMC5-R): 0% | human dose for oral delivery, extrapolated (could be as low as) (male Sprague-Dawley rats; extrapolated from rat to human, oral): 1 mg | efficacious dose to induce penile erection, intravenous (male Sprague-Dawley rats; male Sprague Dawley rats, intravenous): lower than 0.001 μg/kg | oral dose at which peptide may be biologically active (as low as) (male Sprague-Dawley rats; male rats, oral): 250 ng/kg | effect of SHU9119 pre-administration on induced erections (male rats): resulted in erections at a rate equivalent to that obtained without pre-administration of SHU9119 | binding or activity at panel members [2]: No binding or activity

From US7795378B2, “Peptide compositions for treatment of sexual dysfunction” (Palatin Technologies, Inc., priority 2002, dated 2010)
